From US6914045B2, “Glycopeptide antibiotics” (Wyeth Holdings Corporation, priority 2001, dated 2005)
Values after ≈ are worked out from the molar mass of the structure shown.

Assays:
Assay in all cases: in vitro antibacterial evaluation, MIC by broth dilution
Assay type in all cases: cell-based
Streptococcus sp. = conditions: broth dilution, 18 hours at 35° C.
Summary of the method: (§1)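 Broth dilution per NCCLS M7-A2 in Mueller-Hinton II medium, inoculum 5×10^5 CFU/mL, antibiotic range 64-0.06 μg/mL. MIC taken as lowest concentration inhibiting growth; Gram-positive panel includes recent clinical isolates resistant to methicillin, penicillin and/or vancomycin.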

Enterococcus sp. = conditions: broth dilution, 18 hours at 35° C.
Summary of the method: as §1

Staphylococcus sp. = conditions: broth dilution, 18 hours at 35° C.
Summary of the method: as §1

Escherichia coli = conditions: 18 hours at 35° C.

How did the “MIC Streptococcus agalactiae (GC 4564)” value (Streptococcus sp.) turn out when `CC(c1ccccc1)C1NC(=O)CNC(=O)C(CO)NC(=O)C(C(O)C2CNC(=N)N2C2OC(CO)C(O)C(O)C2O)NC(=O)C(C(O)C2CNC(=N)N2)NC(=O)C(Cc2ccc(OC3OC(CO)C(OC4OC(CO)C(O)C5OC6(CCCCCCCCCCCC6)OC45)C(O)C3O)cc2)NC1=O` (stereo not shown) [Example 210a] was run?
Its value is 2 µg/mL (≈ 1.36 µM).

And the “MIC Streptococcus pneumoniae (ATCC 6301)” value (Streptococcus sp.)?
Its value is 0.5 µg/mL (≈ 0.339 µM).

And the “MIC Streptococcus pneumoniae (GC 1894)” value (Streptococcus sp.)?
Its value is <0.06 µg/mL.

What about the “MIC Streptococcus pneumoniae (GC 4565)” value (Streptococcus sp.) of the same molecule?
Its value is 0.25 µg/mL (≈ 0.17 µM).

What about the “MIC Streptococcus pyogenes (GC 4563)” value (Streptococcus sp.) of the same molecule?
Its value is 1 µg/mL (≈ 0.679 µM).

What about the “MIC Streptococcus pneumoniae (ATCC 6301)” value (Streptococcus sp.; inoculum 5×10^5 CFU/mL, strain ATCC 6301) of the same molecule?
Its value is 0.5 µg/mL (≈ 0.339 µM).

And the “MIC Streptococcus pneumoniae (GC 1894)” value (Streptococcus sp.; inoculum 5×10^5 CFU/mL, strain GC 1894)?
The value was <0.06 µg/mL.

What about the “MIC Streptococcus pyogenes (GC 4563)” value (Streptococcus sp.; inoculum 5×10^5 CFU/mL, strain GC 4563) of the same molecule?
The value was 1 µg/mL (≈ 0.679 µM).

What about the “MIC Streptococcus agalactiae (GC 4564)” value (Streptococcus sp.; inoculum 5×10^5 CFU/mL, strain GC 4564) of the same molecule?
Its value is 2 µg/mL (≈ 1.36 µM).

And the “MIC Streptococcus pneumoniae (GC 4565)” value (Streptococcus sp.; inoculum 5×10^5 CFU/mL, strain GC 4565)?
The value was 0.25 µg/mL (≈ 0.17 µM).

What about the “MIC Enterococcus avium (GC 4558)” value (Enterococcus sp.) of the same molecule?
Its value is 4 µg/mL (≈ 2.71 µM).

What about the “MIC Enterococcus faecalis (ATCC 29212)” value (Enterococcus sp.) of the same molecule?
The value was 8 µg/mL (≈ 5.43 µM).

What about the “MIC Enterococcus faecalis (GC 2242)” value (Enterococcus sp.) of the same molecule?
Its value is 8 µg/mL (≈ 5.43 µM).

What about the “MIC Enterococcus faecalis (GC 2691)” value (Enterococcus sp.) of the same molecule?
The value was 8 µg/mL (≈ 5.43 µM).

What about the “MIC Enterococcus faecalis (GC 3059)” value (Enterococcus sp.) of the same molecule?
The value was 8 µg/mL (≈ 5.43 µM).

And the “MIC Enterococcus faecalis (GC 4552)” value (Enterococcus sp.)?
The value was 8 µg/mL (≈ 5.43 µM).

What about the “MIC Enterococcus faecalis (GC 4553)” value (Enterococcus sp.) of the same molecule?
The value was 8 µg/mL (≈ 5.43 µM).

And the “MIC Enterococcus faecalis (GC 4554)” value (Enterococcus sp.)?
The value was 8 µg/mL (≈ 5.43 µM).

And the “MIC Enterococcus faecalis (GC 6189)” value (Enterococcus sp.)?
The value was 8 µg/mL (≈ 5.43 µM).

What about the “MIC Enterococcus faecium (GC 2243)” value (Enterococcus sp.) of the same molecule?
Its value is 4 µg/mL (≈ 2.71 µM).

What about the “MIC Enterococcus faecium (GC 4556)” value (Enterococcus sp.) of the same molecule?
The value was 8 µg/mL (≈ 5.43 µM).

And the “MIC Enterococcus faecium (GC 4557)” value (Enterococcus sp.)?
Its value is 4 µg/mL (≈ 2.71 µM).

What about the “MIC Enterococcus faecalis (ATCC 29212)” value (Enterococcus sp.; inoculum 5×10^5 CFU/mL, strain ATCC 29212) of the same molecule?
Its value is 8 µg/mL (≈ 5.43 µM).

What about the “MIC Enterococcus faecalis (GC 2242)” value (Enterococcus sp.; inoculum 5×10^5 CFU/mL, strain GC 2242) of the same molecule?
Its value is 8 µg/mL (≈ 5.43 µM).

And the “MIC Enterococcus faecium (GC 2243)” value (Enterococcus sp.; inoculum 5×10^5 CFU/mL, strain GC 2243)?
Its value is 4 µg/mL (≈ 2.71 µM).

And the “MIC Enterococcus faecalis (GC 2691)” value (Enterococcus sp.; inoculum 5×10^5 CFU/mL, strain GC 2691)?
The value was 8 µg/mL (≈ 5.43 µM).

And the “MIC Enterococcus faecalis (GC 3059)” value (Enterococcus sp.; inoculum 5×10^5 CFU/mL, strain GC 3059)?
The value was 8 µg/mL (≈ 5.43 µM).

And the “MIC Enterococcus faecalis (GC 4552)” value (Enterococcus sp.; inoculum 5×10^5 CFU/mL, strain GC 4552)?
The value was 8 µg/mL (≈ 5.43 µM).

And the “MIC Enterococcus faecalis (GC 4553)” value (Enterococcus sp.; inoculum 5×10^5 CFU/mL, strain GC 4553)?
Its value is 8 µg/mL (≈ 5.43 µM).

And the “MIC Enterococcus faecalis (GC 4554)” value (Enterococcus sp.; inoculum 5×10^5 CFU/mL, strain GC 4554)?
The value was 8 µg/mL (≈ 5.43 µM).

And the “MIC Enterococcus faecium (GC 4556)” value (Enterococcus sp.; inoculum 5×10^5 CFU/mL, strain GC 4556)?
Its value is 8 µg/mL (≈ 5.43 µM).

What about the “MIC Enterococcus faecium (GC 4557)” value (Enterococcus sp.; inoculum 5×10^5 CFU/mL, strain GC 4557) of the same molecule?
The value was 4 µg/mL (≈ 2.71 µM).

What about the “MIC Enterococcus avium (GC 4558)” value (Enterococcus sp.; inoculum 5×10^5 CFU/mL, strain GC 4558) of the same molecule?
The value was 4 µg/mL (≈ 2.71 µM).

What about the “MIC Enterococcus faecalis (GC 6189)” value (Enterococcus sp.; inoculum 5×10^5 CFU/mL, strain GC 6189) of the same molecule?
Its value is 8 µg/mL (≈ 5.43 µM).

What about the “MIC Staphylococcus aureus (ATCC 29213)” value (Staphylococcus sp.; strain ATCC 29213) of the same molecule?
Its value is 4 µg/mL (≈ 2.71 µM).

And the “MIC Staphylococcus aureus (GC 1131)” value (Staphylococcus sp.; strain GC 1131)?
Its value is 4 µg/mL (≈ 2.71 µM).

And the “MIC Staphylococcus aureus (GC 3051)” value (Staphylococcus sp.; strain GC 3051)?
The value was 8 µg/mL (≈ 5.43 µM).

What about the “MIC Staphylococcus aureus (GC 3053)” value (Staphylococcus sp.; strain GC 3053) of the same molecule?
The value was 4 µg/mL (≈ 2.71 µM).

And the “MIC Staphylococcus aureus (GC 4541)” value (Staphylococcus sp.; strain GC 4541)?
The value was 4 µg/mL (≈ 2.71 µM).

What about the “MIC Staphylococcus aureus (GC 4542)” value (Staphylococcus sp.; strain GC 4542) of the same molecule?
The value was 8 µg/mL (≈ 5.43 µM).

What about the “MIC Staphylococcus aureus-SMITH (GC 4543)” value (Staphylococcus sp.; strain GC 4543) of the same molecule?
The value was 4 µg/mL (≈ 2.71 µM).

What about the “MIC Staphylococcus aureus (GC 4544)” value (Staphylococcus sp.; strain GC 4544) of the same molecule?
Its value is 8 µg/mL (≈ 5.43 µM).

And the “MIC Staphylococcus aureus (GC 4545)” value (Staphylococcus sp.; strain GC 4545)?
The value was 4 µg/mL (≈ 2.71 µM).

And the “MIC Staphylococcus haemolyticus (GC 4546)” value (Staphylococcus sp.; strain GC 4546)?
Its value is 8 µg/mL (≈ 5.43 µM).

What about the “MIC Coagulase Negative Staphylococcus (GC 4547)” value (Staphylococcus sp.; strain GC 4547) of the same molecule?
The value was 4 µg/mL (≈ 2.71 µM).

What about the “MIC Coagulase Negative Staphylococcus (GC 4548)” value (Staphylococcus sp.; strain GC 4548) of the same molecule?
The value was 4 µg/mL (≈ 2.71 µM).

What about the “MIC Coagulase Negative Staphylococcus (GC 4549)” value (Staphylococcus sp.; strain GC 4549) of the same molecule?
The value was 2 µg/mL (≈ 1.36 µM).

What about the “MIC Coagulase Negative Staphylococcus (GC 4551)” value (Staphylococcus sp.; strain GC 4551) of the same molecule?
The value was 4 µg/mL (≈ 2.71 µM).

And the “MIC Coagulase Negative Staphylococcus (GC 6257)” value (Staphylococcus sp.; strain GC 6257)?
Its value is 4 µg/mL (≈ 2.71 µM).

And the “MIC Escherichia coli (ATCC 25922)” value (Escherichia coli)?
Its value is >64 µg/mL.

What about the “MIC Escherichia coli (GC 4559)” value (Escherichia coli) of the same molecule?
Its value is >64 µg/mL.

What about the “MIC Escherichia coli (GC 4560)” value (Escherichia coli) of the same molecule?
Its value is 16 µg/mL (≈ 10.9 µM).
